# Laboratory results: US11654140B2, “Treatment of ocular inflammatory diseases using laquinimod” (Active Biotech AB, priority 2012, dated 2023)
# Columns and labels:
# [1] = tested on: S-antigen-induced experimental autoimmune uveitis (EAU) in rats; experiment: S-antigen-induced experimental autoimmune uveitis in rats (EAU model), slit lamp clinical score (Example 1); format: in vivo, rat; conditions: for Slit lamp ocular evaluation of both eyes, Incidence % / Slit lamp ocular evaluation of both eyes, mean clinical score: 10 μl once daily both eyes from Day 7; for Slit lamp ocular evaluation of both eyes, mean clinical score: score 0-6
# Procedure: (§1) A 1% (10 mg/ml) and a 5% (50 mg/ml) solution of laquinimod sodium were prepared in sterile water. Dissolution of laquinimod powder was achieved by shaking, stirring, or low-speed vortex. The solutions were stored for up to 2 weeks at 2-8° C. and up to 24 hours at room temperature. Laquinimod solutions were prepared under light protection and were protected from light for the duration of the experiment. […] One 100 mg/4 ml in olive oil dose was prepared every 2 days and stored at room temperature.
# (§2) Thirty two female albino Lewis rats were randomly divided into four (4) groups of eight (8) rats. Ocular inflammation was induced at Day 1 by injection of 100 μl of human S-antigen (100 μg) in Freud's complete adjuvant (4 mg/ml) into the footpad of each rat, and an intraperitoneal injection of 1 μg/100 μl pertussis toxin.
# (§3) Beginning on Day 7 until the end of the study, each animal group was treated with a test solution in both eyes as shown in Table 1:
# Both eyes of each rat were examined with a slit-lamp at baseline and then every 2 days from Day 10 to the end of the study. Fifteen minutes prior to each examination, 10 μl of Mydriaticum (0.5% tropicamide) was instilled for papillary dilatation.
# The effect of test material and reference material on ocular inflammation was measured with slit lamp evaluation and scored using the clinical scoring as shown in Table 3: […]
# [2] = tested on: S-antigen-induced experimental autoimmune uveitis (EAU) in rats; experiment: EAU model in rats, histological ocular evaluation (Example 1); format: in vivo, rat; conditions: Day 16; for Histological ocular evaluation of both eyes, mean histologic grade: 10 μl once daily both eyes from Day 7, scale 0-7
# Procedure: as §1, §2, §3
# Immediately after euthanasia (i.e., at Day 16), both eyeballs of all rats of each group were enucleated and prepared for histological examination. They were fixed in Bouin-Hollande solution, dehydrated, and embedded in paraffin wax. They were then cut into eight sections, approximate five to seven micrometers thick and stained with Trichome of Masson.
# [3] = tested on: ovalbumin-induced allergic conjunctivitis (late phase reaction) in mice; experiment: Ocular active anaphylaxis (late phase) in mice, ovalbumin model, eosinophil infiltration into conjunctiva (Example 2); format: in vivo; conditions: for Eosinophil density, mean / Inhibition of Eosinophil Infiltration vs. Vehicle: 10 μl topical right eye four times daily Day 8-17, five times Day 18; for Eosinophil density, mean: conjunctiva Day 19
# Procedure: Laquinimod solutions were prepared as in Example 1.
# Forty (40) Balb/c albino mice were randomly allocated to five groups of eight animals each. Only the right eyes of each animal were used in this study.
# On Days 1 and 8, animals in groups 2-5 were injected once intraperitoneally with 0.2 ml of a mixture comprising 5 μg/ml ovalbumin and 15 mg/ml alum in phosphate buffered saline (PBS; pH 7.3-7.4). Animals of group 1 received a mock sensitization comprising 0.2 ml intraperitoneal injection of PBS only on Days 1 and 8.
# Laquinimod or controls were delivered into the right conjunctival sac as follows: • From Day 8 to Day 17, animals were dosed four times daily with 10 μl of either 1% laquinimod, 5% laquinimod, or vehicle. Reference Group 5 was dosed with the same regimen, but starting on Day 15. (**Note: Due to a technical error, four mice from Group 1 (negative vehicle) were not dosed on Day 8 and one mouse from Group 1 (negative vehicle) was not dosed on Day 11. This was deemed not to be a critical error that would affect the outcome of the study so the study was continued). • On Day 18, animals were dosed five times during a three hour period before the second challenge (3 h, 2 h, 1 h, 40 min., and 10 min.).
# Allergic conjunctivitis was achieved by a single administration on Day 15 (30 minutes before the treatment regimen) and Day 18 (2 hours after 40 minute treatment) with 10 μl of 5 mg/ml ovalbumin in PBS, pH 7.3-7.4 to the right eyes of all […] in groups 2 through 5. Group 1 was mock challenged with 10 μl PBS only.
# On Day 19 (12 h to 24 h after challenge), […] were euthanized using an intraperitoneal injection of pentobarbital. Right eyelids and eyeballs were immediately fixed in Bouin-Hollande solution for 24 hours and embedded in paraffin wax. Fixed samples were cut vertically into 5 to 7 micrometer thick sections with a microtome in two different regions—the bulbar conjunctiva and the fornix and palpebral conjunctiva. Three sections per region were selected for analysis based on the quality of the sectioning. The selected sections were stained with May-Grunwald/acid Giemsa.
# After staining, digital images using 200× magnifications were taken with a Leica light microscope. Total area of subconjunctival tissue was measured automatically using the Leica Application Suite (LAS) software. Eosinophils were counted throughout the whole conjunctiva in each of the three sections per sample. The density per square millimeter of eosinophils stained with acid Giemsa was calculated for each specimen. The average cell density per eye was calculated from the results of the […] sections.
# [4] = Animal body weight and adverse clinical effects, ovalbumin study (Example 2); format: in vivo; conditions: laquinimod-treated mice, multiple topical administrations
# Source text: This weight loss is commonly observed during chronic corticosteroid treatments.
# [5] = tested on: S-antigen-induced uveitis in albino rats; experiment: Ocular vs oral laquinimod in S-antigen-induced uveitis in albino rats, clinical score (Example 10); format: in vivo, rat; conditions: once daily, 7 days
# [6] = tested on: subject suffering from an inflammation of the orbital tissue, the lacrimal apparatus, the eyelid, the cornea, the retina or the optic pathway; experiment: Laquinimod for treating inflammation in the eye (Example 7); format: in vivo; conditions: laquinimod composition, once daily
# Procedure: In the examples 4-9 below, the administration of the composition is once daily. The administration can be repeated daily for a period of one, two, three or four days, up to 14 days, or longer as necessary.
# A laquinimod composition as described herein is administered to a subject suffering from an inflammation of the orbital tissue, the lacrimal apparatus, the eyelid, the cornea, the retina or the optic pathway in the eye. The administration of the composition is effective to treat the subject suffering from the inflammation. The administration of the composition is also effective to reduce intraocular inflammation in the subject.
smiles,measurement,setting,value
"CCN(C(=O)c1c(O)c2c(Cl)cccc2n(C)c1=O)c1ccccc1 [Laquinimod, laquinimod]","Slit lamp ocular evaluation of both eyes, Incidence %","[1]; 1% Laquinimod, Baseline",0.0%
same,"Slit lamp ocular evaluation of both eyes, mean clinical score","[1]; 1% Laquinimod, Baseline",0.0
same,"Slit lamp ocular evaluation of both eyes, Incidence %","[1]; 1% Laquinimod, Day 10",6.3%
same,"Slit lamp ocular evaluation of both eyes, mean clinical score","[1]; 1% Laquinimod, Day 10",0.1
same,"Slit lamp ocular evaluation of both eyes, Incidence %","[1]; 1% Laquinimod, Day 12",6.3%
same,"Slit lamp ocular evaluation of both eyes, mean clinical score","[1]; 1% Laquinimod, Day 12",0.1
same,"Slit lamp ocular evaluation of both eyes, Incidence %","[1]; 1% Laquinimod, Day 14",18.8%
same,"Slit lamp ocular evaluation of both eyes, mean clinical score","[1]; 1% Laquinimod, Day 14",0.8
same,"Slit lamp ocular evaluation of both eyes, Incidence %","[1]; 1% Laquinimod, Day 16",31.3%
same,"Slit lamp ocular evaluation of both eyes, mean clinical score","[1]; 1% Laquinimod, Day 16",1.3
same,"Slit lamp ocular evaluation of both eyes, mean clinical score","[1]; 1% Laquinimod, Day 16, listed as laquinimod",1.3±2.1
same,"Slit lamp ocular evaluation of both eyes, Incidence %","[1]; 5% Laquinimod, Baseline",0.0%
same,"Slit lamp ocular evaluation of both eyes, mean clinical score","[1]; 5% Laquinimod, Baseline",0.0
same,"Slit lamp ocular evaluation of both eyes, Incidence %","[1]; 5% Laquinimod, Day 10",0.0%
same,"Slit lamp ocular evaluation of both eyes, mean clinical score","[1]; 5% Laquinimod, Day 10",0.0
same,"Slit lamp ocular evaluation of both eyes, Incidence %","[1]; 5% Laquinimod, Day 12",0.0%
same,"Slit lamp ocular evaluation of both eyes, mean clinical score","[1]; 5% Laquinimod, Day 12",0.0
same,"Slit lamp ocular evaluation of both eyes, Incidence %","[1]; 5% Laquinimod, Day 14",6.3%
same,"Slit lamp ocular evaluation of both eyes, mean clinical score","[1]; 5% Laquinimod, Day 14",0.3
same,"Slit lamp ocular evaluation of both eyes, Incidence %","[1]; 5% Laquinimod, Day 16",12.5%
same,"Slit lamp ocular evaluation of both eyes, mean clinical score","[1]; 5% Laquinimod, Day 16",0.6
same,"Slit lamp ocular evaluation of both eyes, mean clinical score","[1]; 5% Laquinimod, Day 16, listed as laquinimod",0.6±1.5
same,rats tested that demonstrated no intraocular inflammation,"[1]; 5% laquinimod solution once per day, Day 16",Six out of eight
same,"Histological ocular evaluation of both eyes, mean histologic grade",[2]; 1% Laquinimod,1.2
same,"Histological ocular evaluation of both eyes, mean histologic grade","[2]; 1% Laquinimod, listed as laquinimod",1.2±2.2
same,eyes showing significant destruction of the retina associated with infiltration of inflammatory cells,[2]; 1% laquinimod once per day,four eyes out of sixteen
same,"Histological ocular evaluation of both eyes, mean histologic grade",[2]; 5% Laquinimod,0.7
same,"Histological ocular evaluation of both eyes, mean histologic grade","[2]; 5% Laquinimod, listed as laquinimod",0.7±1.9
same,eyes showing destruction of the retina associated with infiltration of inflammatory cells,[2]; 5% laquinimod once per day,two eyes (from two different animals) out of sixteen
same,"Eosinophil density, mean",[3]; 1% Laquinimod,117.5 cells/mm2
same,Inhibition of Eosinophil Infiltration vs. Vehicle,"[3]; 1% Laquinimod, not statistically significant",48%
same,Inhibition of Eosinophil Infiltration vs. Vehicle,"[3]; 1% Laquinimod, not statistically significant, listed as laquinimod",48%
same,"Eosinophil density, mean",[3]; 5% Laquinimod,72.5 cells/mm2
same,Inhibition of Eosinophil Infiltration vs. Vehicle,"[3]; 5% Laquinimod, p 0.0023",68%
same,Inhibition of Eosinophil Infiltration vs. Vehicle,"[3]; 5% Laquinimod, p 0.0023, listed as laquinimod",68%
same,late ocular anaphylaxis reaction,"[3]; multiple topical administrations, statistically significant effect at a dose of 5%",inhibited the late ocular anaphylaxis reaction
same,adverse clinical effect,[4],No adverse clinical effect was observed
same,% Inhibition of clinical score on Day 16,[5]; 1% PO,24%
same,% Inhibition of clinical score on Day 16,[5]; 1% eye drops,−75%
same,% Inhibition of clinical score on Day 16,[5]; 5% PO,39%
same,% Inhibition of clinical score on Day 16,[5]; 5% eye drops,31%
same,reduce intraocular inflammation in the subject,[6]; inflammation in the eye,effective
same,treat the subject suffering from the inflammation,"[6]; inflammation of orbital tissue, lacrimal apparatus, eyelid, cornea, retina or optic pathway",effective
